From US20080008991A1, “SYSTEM AND METHOD FOR OPTIMIZING DRUG THERAPY FOR THE TREATMENT OF DISEASES” (priority 2000, published 2008)
Where two headings read alike, the source gives them in different places.

Legend:
[1] = Amprenavir plasma trough concentration by LC-MS/MS in treatment-experienced patients; settings: human, in vivo; median; 12 hours after dosing; amprenavir 1200 mg bid with ritonavir or nelfinavir; 17 patients; read-out: Cmin
Experimental: Patients were enrolled into three parallel treatment groups that included abacavir 300 mg bid, amprenavir 1200 mg bid, and efavirenz 600 mg daily with either low dose ritonavir at 200 mg BID, high dose ritonavir at 500 mg bid, or nelfinavir 1250 mg bid.
Genotyping (VircoGEN II™, VIRCO) and VIRTUAL PHENOTYPE™ were performed on baseline samples. Viral load data were collected at baseline (mean of two pre-therapy samples) and at week 24. Serial pharmacokinetic samples were collected over 12 hours after week 3 for ritonavir-boosted regimens and after week 2 for nelfinavir-boosted regimens.
Amprenavir concentrations in plasma were determined by a validated LC-MS/MS method.
For amprenavir, nelfinavir, and ritonavir, the concentration 12 hours after dosing was used as the Cmin. For each drug, relationships between viral load change at week 24 and the Cmin, fold-change in resistance, and NIQ were fit to a sigmoidal maximum effect model.

HIV-1 = experiment: NIQ as predictor of virologic outcome at week 24; type: in vivo, human (patients)
Experimental: The normalized inhibitory quotient (NIQ) was determined as: [formula]
Where the IQ in an individual patient (IQpatient) was calculated as ratio of the patient's trough concentration (Cmin) to the susceptibility of the patient's virus to the drug, expressed as fold change compared to wild type virus (Virtual Phenotype). The IQpt was then related to the reference inhibitory quotient (IQref), in which the mean population trough concentration of the drug from the product label was divided by the cut-off value of the fold change for susceptible viruses.
For amprenavir, nelfinavir, and ritonavir, the concentration 12 hours after dosing was used as the Cmin. […]

HIV = settings: lopinavir plus efavirenz and 2 NRTIs, cited from earlier work

**Q.** With `CC(C)CN(C[C@@H](O)[C@H](Cc1ccccc1)NC(=O)O[C@H]1CCOC1)S(=O)(=O)c1ccc(N)cc1` [Amprenavir, amprenavir] as the compound, how does the concentration at 12 h [1] read?
**A.** The concentration at 12 h was 1270 ng/mL.

**Q.** And the “patients with decrease in viral load to <400 copies/ml at week 24” value (HIV-1; patients achieving NIQ>3.0)?
**A.** Its value is 7/8.

**Q.** What about the “patients with decrease in viral load to <400 copies/ml at week 24” value (HIV-1; patients with NIQ<3.0) of the same compound?
**A.** Its value is 1/9.

**Q.** Which results are given for `Cc1cccc(C)c1OCC(=O)N[C@@H](Cc1ccccc1)[C@@H](O)C[C@H](Cc1ccccc1)NC(=O)[C@H](C(C)C)N1CCCNC1=O` [lopinavir]?
**A.** % of patients with viral load below 400 copies/mL at week 24 (HIV; lopinavir IQ 4-15): 80%; % of patients with viral load below 400 copies/mL at week 24 (HIV; lopinavir IQ <4): 70%; % of patients with viral load below 400 copies/mL at week 24 (HIV; lopinavir IQ >15): 100%
